Drawing on the RepoRT retention time repository (doi:10.1021/acs.analchem.1c00972), this text covers LC retention time for 19 molecules.

Common to all, as to details: stereoisomer not certain
A short description of series [1]: RP, Waters ACQUITY UPLC BEH C18, 100 × 1 mm, 1.7 µm, 50 °C, 0.3 mL/min, estimated dead time 0.17 min; A: water + 10 mM ammonium bicarbonate; B: 10% water + 90% methanol + 10 mM ammonium bicarbonate; gradient (min/%B) 0/0 15/100 21/100 22/0 30/0.
Series [2] is described as follows: RP, Waters ACQUITY UPLC BEH C18, 100 × 1 mm, 1.7 µm, 50 °C, 0.3 mL/min, estimated dead time 0.17 min; A: water + 0.1% formic acid + 20 mM ammonium formate; B: methanol + 0.1% formic acid + 20 mM ammonium formate; gradient (min/%B) 0/0 15/100 21/100 22/0 30/0.
Series [3] is described as follows: RP, Phenomenex Synergi Polar-RP, 100 × 3 mm, 2.5 µm, 40 °C, 0.4 mL/min, estimated dead time 1.1 min; A: water + 1 mM ammonium fluoride; B: methanol + 1 mM ammonium fluoride; C: acetonitrile; D: 50% isopropanol + 50% acetone; gradient (min/%B/%C/%D) 0/5/0/0 2/5/0/0 8/95/0/0 12/80/15/0 19/25/70/0 19.5/0/25/70 21.5/0/25/70 22.5/0/25/0 23/5/0/0.

As to `N#Cc1nn(-c2c(Cl)cc(C(F)(F)F)cc2Cl)c(N)c1SC(F)(F)F` [Fipronil sulfide], the LC retention time is 15.8 min in series [1], 15.4 min in series [2] and 11 min in series [3].

For `N#Cc1nn(-c2c(Cl)cc(C(F)(F)F)cc2Cl)c(N)c1S(=O)(=O)C(F)(F)F` [Fipronil sulfone], the LC retention time in series [1] was 16 min; in series [2] it was 15.7 min; in series [3], 11.1 min.

On to `CC(C)C(=O)Nc1ccc([N+](=O)[O-])c(C(F)(F)F)c1` [Flutamide], for which the LC retention time in series [1] is 14.3 min; in series [2] it was 14.1 min; in series [3], 10.7 min.

On to `NS(=O)(=O)c1cc2c(cc1Cl)NCNS2(=O)=O` [Hydrochlorothiazide], for which the LC retention time was 4.67 min in series [1], 5.2 min in series [2] and 7.62 min in series [3].

Turning to `COC(=O)c1ccc(O)cc1` [Methylparaben], the LC retention time in series [1] is 9.08 min; in series [2] it was 9.98 min; in series [3], 9.32 min.

For `CC(=O)Nc1ccc(O)c(C(=O)O)c1` [N-Acetyl mesalazine], the figures for the LC retention time in series [1], in series [2] and in series [3] were 4.58 min, 6.82 min and 2.92 min, respectively.

`O=C(O)C(F)(F)C(F)(F)C(F)(F)F` [Perfluorobutanoic acid]: the LC retention time was 7.16 min in series [1], 7.57 min in series [2] and 2.91 min in series [3].

In the case of `O=C(O)C(F)(F)C(F)(F)C(F)(F)C(F)(F)C(F)(F)C(F)(F)C(F)(F)C(F)(F)C(F)(F)F` [Perfluorodecanoic acid], the values for the LC retention time in series [1], in series [2] and in series [3] were 16.1 min, 15.9 min and 9.39 min, respectively.

Turning to `O=C(O)C(F)(F)C(F)(F)C(F)(F)C(F)(F)C(F)(F)C(F)(F)F` [Perfluoroheptanoic acid], the values for the LC retention time in series [1], in series [2] and in series [3] were 13.9 min, 13.8 min and 11.3 min, respectively.

Take `O=C(O)C(F)(F)C(F)(F)C(F)(F)C(F)(F)C(F)(F)F` [Perfluorohexanoic acid]: the results for the LC retention time in series [1], in series [2] and in series [3] were 12.7 min, 12.7 min and 8.19 min, respectively.

Regarding `NS(=O)(=O)C(F)(F)C(F)(F)C(F)(F)C(F)(F)C(F)(F)C(F)(F)C(F)(F)C(F)(F)F` [Perfluorooctanesulfonamide], the LC retention time in series [1] is 15.7 min; in series [2], 16.5 min; in series [3], 10.6 min.

As to `O=C(O)C(F)(F)C(F)(F)C(F)(F)C(F)(F)C(F)(F)C(F)(F)C(F)(F)F` [Perfluorooctanoic acid], the LC retention time was 14.8 min in series [1], 14.7 min in series [2] and 8.97 min in series [3].

With `O=C(O)C(F)(F)C(F)(F)C(F)(F)C(F)(F)C(F)(F)C(F)(F)C(F)(F)C(F)(F)C(F)(F)C(F)(F)C(F)(F)C(F)(F)C(F)(F)F` [Perfluorotetradecanoic acid], the LC retention time in series [1] is 17.7 min; in series [2] it was 17.7 min; in series [3], 9.93 min.

Turning to `CCC(C)C(=O)OC1CC(O)C=C2C=CC(C)C(CCC(O)CC(O)CC(=O)O)C21` (configuration not stated) [Pravastatin], the LC retention time in series [1] is 12.1 min; in series [2] it was 13.3 min; in series [3], 9.42 min.

For the molecule `CCCOC(=O)c1ccc(O)cc1` [Propylparaben], the values for the LC retention time in series [1], in series [2] and in series [3] were 12.7 min, 12.9 min and 10.2 min, respectively.

For the molecule `O=C1NS(=O)(=O)c2ccccc21` [Saccharin], the figures for the LC retention time in series [1], in series [2] and in series [3] were 4.9 min, 5.37 min and 3.01 min, respectively.

Regarding `CC(C)(c1cc(Br)c(O)c(Br)c1)c1cc(Br)c(O)c(Br)c1` [Tetrabromobisphenol A], the LC retention time in series [1] was 14.6 min; in series [2], 16.6 min; in series [3], 11.7 min.

Consider `O=C(Nc1ccc(Cl)c(Cl)c1)c1cc(Cl)cc(Cl)c1O` [Tetrachlorosalicylanilide], for which the LC retention time in series [1] is 14.9 min; in series [2], 17.7 min; in series [3], 10.2 min.

`CCCCCCCCCCCCCCOS(=O)(=O)O` [Tetradecylsulfate]: the LC retention time in series [1] is 17.4 min; in series [2] it was 17.2 min; in series [3], 9.97 min.
